Literature values as cited in patent US12357536B2, “Containers with selective dissolved gas content” (BAXTER INTERNATIONAL INC., priority 2021, dated 2025).
Read-outs that look alike come from different tables or passages of the source.

Conditions: cited from earlier work; for Solubility of oxygen: 760 mm Hg, salinity 0.0 ppt

Q: With `O=O` [oxygen] as the molecule, how does the Solubility of oxygen (3.0 °C) read?
A: 13.445 ppm

Q: What about the Solubility of oxygen (3.2 °C) of the same molecule?
A: 13.374 ppm

Q: And the Solubility of oxygen (3.4 °C)?
A: 13.303 ppm

Q: And the Solubility of oxygen (3.6 °C)?
A: 13.233 ppm

Q: What about the Solubility of oxygen (3.8 °C) of the same molecule?
A: 13.163 ppm

Q: And the Solubility of oxygen (4.0 °C)?
A: 13.094 ppm

Q: And the Solubility of oxygen (4.2 °C)?
A: 13.025 ppm

Q: And the Solubility of oxygen (4.4 °C)?
A: 12.957 ppm

Q: What about the Solubility of oxygen (4.6 °C) of the same molecule?
A: 12.890 ppm

Q: What about the Solubility of oxygen (4.8 °C) of the same molecule?
A: 12.823 ppm

Q: What about the Solubility of oxygen (5.0 °C) of the same molecule?
A: 12.757 ppm

Q: What about the Solubility of oxygen (5.2 °C) of the same molecule?
A: 12.692 ppm

Q: And the Solubility of oxygen (5.4 °C)?
A: 12.627 ppm

Q: And the Solubility of oxygen (5.6 °C)?
A: 12.563 ppm

Q: And the Solubility of oxygen (5.8 °C)?
A: 12.499 ppm

Q: And the Solubility of oxygen (6.0 °C)?
A: 12.436 ppm

Q: And the Solubility of oxygen (6.2 °C)?
A: 12.373 ppm

Q: What about the Solubility of oxygen (6.4 °C) of the same molecule?
A: 12.311 ppm

Q: What about the Solubility of oxygen (6.6 °C) of the same molecule?
A: 12.249 ppm

Q: What about the Solubility of oxygen (6.8 °C) of the same molecule?
A: 12.188 ppm

Q: And the Solubility of oxygen (7.0 °C)?
A: 12.127 ppm

Q: What about the Solubility of oxygen (7.2 °C) of the same molecule?
A: 12.067 ppm

Q: What about the Solubility of oxygen (7.4 °C) of the same molecule?
A: 12.008 ppm

Q: What about the Solubility of oxygen (7.6 °C) of the same molecule?
A: 11.949 ppm

Q: And the Solubility of oxygen (7.8 °C)?
A: 11.980 ppm

Q: What about the Solubility of oxygen (8.0 °C) of the same molecule?
A: 11.832 ppm

Q: What about the Solubility of oxygen (8.2 °C) of the same molecule?
A: 11.774 ppm

Q: What about the Solubility of oxygen (8.4 °C) of the same molecule?
A: 11.717 ppm

Q: And the Solubility of oxygen (8.6 °C)?
A: 11.661 ppm

Q: And the Solubility of oxygen (8.8 °C)?
A: 11.604 ppm

Q: What about the Solubility of oxygen (9.0 °C) of the same molecule?
A: 11.549 ppm

Q: And the Solubility of oxygen (9.2 °C)?
A: 11.493 ppm

Q: And the Solubility of oxygen (9.4 °C)?
A: 11.439 ppm

Q: What about the Solubility of oxygen (9.6 °C) of the same molecule?
A: 11.384 ppm

Q: What about the Solubility of oxygen (9.8 °C) of the same molecule?
A: 11.331 ppm

Q: And the Solubility of oxygen (10.0 °C)?
A: 11.277 ppm

Q: And the Solubility of oxygen (10.2 °C)?
A: 11.224 ppm

Q: What about the Solubility of oxygen (10.4 °C) of the same molecule?
A: 11.172 ppm

Q: And the Solubility of oxygen (10.6 °C)?
A: 11.119 ppm

Q: And the Solubility of oxygen (10.8 °C)?
A: 11.068 ppm

Q: What about the Solubility of oxygen (11.0 °C) of the same molecule?
A: 11.016 ppm

Q: What about the Solubility of oxygen (11.2 °C) of the same molecule?
A: 10.995 ppm

Q: What about the Solubility of oxygen (11.4 °C) of the same molecule?
A: 10.915 ppm

Q: What about the Solubility of oxygen (11.6 °C) of the same molecule?
A: 10.865 ppm

Q: What about the Solubility of oxygen (11.8 °C) of the same molecule?
A: 10.815 ppm

Q: What about the Solubility of oxygen (12.0 °C) of the same molecule?
A: 10 766 ppm

Q: What about the Solubility of oxygen (12.2 °C) of the same molecule?
A: 10.717 ppm

Q: What about the Solubility of oxygen (12.4 °C) of the same molecule?
A: 10.669 ppm

Q: And the Solubility of oxygen (12.6 °C)?
A: 10.620 ppm

Q: And the Solubility of oxygen (12.8 °C)?
A: 10.573 ppm

Q: And the Solubility of oxygen (13.0 °C)?
A: 10.525 ppm

Q: What about the Solubility of oxygen (13.2 °C) of the same molecule?
A: 10.478 ppm

Q: What about the Solubility of oxygen (13.4 °C) of the same molecule?
A: 10.432 ppm

Q: And the Solubility of oxygen (13.6 °C)?
A: 10.386 ppm

Q: What about the Solubility of oxygen (13.8 °C) of the same molecule?
A: 10.340 ppm

Q: What about the Solubility of oxygen (14.0 °C) of the same molecule?
A: 10.294 ppm

Q: And the Solubility of oxygen (14.2 °C)?
A: 10.249 ppm

Q: What about the Solubility of oxygen (14.4 °C) of the same molecule?
A: 10.204 ppm

Q: What about the Solubility of oxygen (14.6 °C) of the same molecule?
A: 10.160 ppm

Q: And the Solubility of oxygen (14.8 °C)?
A: 10.115 ppm

Q: And the Solubility of oxygen (15.0 °C)?
A: 10.072 ppm

Q: And the Solubility of oxygen (15.2 °C)?
A: 10.028 ppm

Q: What about the Solubility of oxygen (15.4 °C) of the same molecule?
A: 9.985 ppm

Q: And the Solubility of oxygen (15.6 °C)?
A: 9.942 ppm

Q: And the Solubility of oxygen (15.8 °C)?
A: 9.900 ppm

Q: What about the Solubility of oxygen (16.0 °C) of the same molecule?
A: 9.858 ppm

Q: What about the Solubility of oxygen (16.2 °C) of the same molecule?
A: 9.816 ppm

Q: What about the Solubility of oxygen (16.4 °C) of the same molecule?
A: 9.774 ppm

Q: And the Solubility of oxygen (16.6 °C)?
A: 9.733 ppm

Q: What about the Solubility of oxygen (16.8 °C) of the same molecule?
A: 9.692 ppm

Q: And the Solubility of oxygen (17.0 °C)?
A: 9.651 ppm

Q: What about the Solubility of oxygen (17.2 °C) of the same molecule?
A: 9.611 ppm

Q: What about the Solubility of oxygen (17.4 °C) of the same molecule?
A: 9.571 ppm

Q: What about the Solubility of oxygen (17.6 °C) of the same molecule?
A: 9.531 ppm

Q: And the Solubility of oxygen (17.8 °C)?
A: 9.492 ppm

Q: And the Solubility of oxygen (18.0 °C)?
A: 9.453 ppm

Q: What about the Solubility of oxygen (18.2 °C) of the same molecule?
A: 9.414 ppm

Q: What about the Solubility of oxygen (18.4 °C) of the same molecule?
A: 9.375 ppm

Q: And the Solubility of oxygen (18.6 °C)?
A: 9.337 ppm

Q: What about the Solubility of oxygen (18.8 °C) of the same molecule?
A: 9.299 ppm

Q: What about the Solubility of oxygen (19.0 °C) of the same molecule?
A: 9.261 ppm

Q: What about the Solubility of oxygen (19.2 °C) of the same molecule?
A: 9.224 ppm

Q: What about the Solubility of oxygen (19.4 °C) of the same molecule?
A: 9.187 ppm

Q: What about the Solubility of oxygen (19.6 °C) of the same molecule?
A: 9.150 ppm

Q: What about the Solubility of oxygen (19.8 °C) of the same molecule?
A: 9.113 ppm

Q: And the Solubility of oxygen (20.0 °C)?
A: 9.077 ppm

Q: What about the Solubility of oxygen (20.2 °C) of the same molecule?
A: 9.040 ppm

Q: What about the Solubility of oxygen (20.4 °C) of the same molecule?
A: 9.004 ppm

Q: What about the Solubility of oxygen (20.6 °C) of the same molecule?
A: 8.969 ppm

Q: And the Solubility of oxygen (20.8 °C)?
A: 8.933 ppm

Q: And the Solubility of oxygen (21.0 °C)?
A: 8.989 ppm

Q: What about the Solubility of oxygen (21.2 °C) of the same molecule?
A: 8.863 ppm

Q: What about the Solubility of oxygen (21.4 °C) of the same molecule?
A: 8.829 ppm

Q: And the Solubility of oxygen (21.6 °C)?
A: 8.794 ppm

Q: And the Solubility of oxygen (21.8 °C)?
A: 8.760 ppm

Q: What about the Solubility of oxygen (22.0 °C) of the same molecule?
A: 8.726 ppm

Q: And the Solubility of oxygen (22.2 °C)?
A: 8.693 ppm

Q: What about the Solubility of oxygen (22.4 °C) of the same molecule?
A: 8.659 ppm

Q: What about the Solubility of oxygen (22.6 °C) of the same molecule?
A: 8.626 ppm

Q: What about the Solubility of oxygen (22.8 °C) of the same molecule?
A: 8.583 ppm

Q: What about the “DO concentration of a solution saturated with oxygen” value (about room temperature (approx.) 21° C) of the same molecule?
A: about 8 ppm
